Assay results published in patent US20200165194A1, “ADDITIVE COMPOSITION FOR CULTURE MEDIUM, ADDITIVE COMPOUND FOR CULTURE MEDIUM, AND METHOD FOR CULTURE OF CELLS OR TISSUE USING SAME” (NISSAN CHEMICAL CORPORATION, priority 2017, published 2020).

Experiments:
Assay type in all cases: cell-based
[1] = system: Bone marrow-derived human mesenchymal stem cells (BM-hMSC); experiment: Cells cultured by hanging drop method, ATP assay (Experimental Example 12); conditions: for cell number (relative value): BM-hMSC, hanging drop, 5 μM, 2 days, control = 100%; for cell number (in words): bone marrow-derived human mesenchymal stem cells, hanging drop method
Experimental: (§1) Human epithelial-like cell cancer-derived cell line A431 (manufactured by ATCC) was cultured using 10% FBS and 1% MEM non-essential amino acid solution (MEM NEAA, manufactured by Wako Pure Chemical Industries, Ltd.)-containing EMEM (manufactured by Wako Pure Chemical Industries, Ltd.)). In addition, bone marrow-derived human mesenchymal stem cells (BM-hMSC, manufactured by PromoCell) were cultured using a mesenchymal stem cell proliferation medium (manufactured by PromoCell). Each of the above-mentioned cells in the logarithmic growth phase was washed with PBS, a 0.25 w/v % trypsin-1 mmol/L EDTA (ethylenediaminetetraacetic acid) solution (manufactured by Wako Pure Chemical Industries, Ltd.) was added, and the cells were detached by incubating at 37° C. for 3 min. Each medium was added, the mixture was centrifuged, and the supernatant was removed.
(§2) The cell suspension was seeded by 10 μL in 15 drops on the back surface of the lid of a 3.5 cm dish (manufactured by Falcon, #351008) to form droplets. At this time, as a control, a medium supplemented with DMSO (final concentration of DMSO: 0.05%) was seeded by 10 μL in 15 drops. The lid was returned to a 3.5 cm dish added with 2 mL of PBS, and cultured for 2 days in an incubator at 37° C., 5% CO2. The cultured droplets were collected in a 1.5 mL tube, and the medium was added to a final volume of 150 μL.

[2] = system: human epithelial-like cell cancer-derived cell line A431; experiment: as above; conditions: for cell number (in words): A431 cell line, three-dimensional cell culture by the hanging drop method; for cell number (relative value): A431 cell, hanging drop, 5 μM, 2 days, control = 100%
Experimental: as §1, §2

[3] = system: SKOV3 cells (human ovarian cancer-derived cell line); experiment: Cell proliferation activity in three-dimensional medium FCeM, ATP assay (Experimental Example 1); conditions: SKOV3, 3D medium FCeM, 4 days, DMSO control = 100%, average of two tests
Experimental: A cell proliferation promoting effect when the compound to be used in the present invention was added to a three-dimensional medium was studied. Specifically, precultured (adhesion cultured) SKOV3 cells (human ovarian cancer-derived cell line) were recovered and suspended in a three-dimensional cell culture medium (“FCeM (registered trade mark)” (Nissan chemical corporation)) to prepare a cell suspension. […] The cell suspension seeded in the plate was stood overnight at 37° C., 5% CO2. Then, a DMSO diluted solution (4.44 μL) of the compound to be used in the present invention was added at a final concentration of 5 μM (or two steps of […] and 10 μM) (no stirring after addition). After addition of each compound, the mixtures were stood for 4 days at 37° C., 5% CO2. […] The luminescence intensity (RLU value) was measured by FlexStation3 (manufactured by Molecular Devices), and cell proliferation was evaluated.
The proliferation rate was calculated based on the control (cells added with DMSO without containing the compound to be used in the present invention) as the standard (100%). The values shown in the tables are average values of the results of two tests.

[4] = system: Canine kidney renal tubule epithelial cells (MDCK cells); experiment: MDCK cells-1: Cyst formation on Matrigel, Cyst area by fluorescence microscope (Experimental Example 7); conditions: 10 μM, 7 days
Experimental: Canine kidney renal tubule epithelial cells (MDCK cells, manufactured by DS PHARMA BIO MEDICAL) were precultured in EMEM medium containing 10% FBS and 1% NEAA. Cold Matrigel (registered trade mark) Matrix GFR (manufactured by Corning) was spread on a 24-well plate by 50 μL and fixed by incubating at 37° C. for 15 min. The aforementioned MDCK cells were suspended in a medium at a concentration of 20000 cells/mL, cold Matrigel (registered trade mark) Matrix GFR was added at […] and seeded at 1 mL/well. […] As a control (compound no-addition), DMSO was added at a final concentration of 0.1%. Seven days later, the cells were washed with PBS (1 mL/well), 4% paraformaldehyde/PBS (manufactured by Wako Pure Chemical Industries, Ltd.) was added (1 mL/well) and fixed at room temperature for 20 min. Thereafter, the supernatant was removed, IF buffer (0.2% Triton X-100 (manufactured by Sigma-Aldrich), 0.05% Tween 20 (manufactured by Sigma-Aldrich)-containing PBS) were added at 1 mL/well, stood for 30 min and removed. […] After washing 3 times every 5 min with IF buffer, VECTASHIELD Mounting Medium with DAPI (manufactured by Vector Laboratories) was added dropwise, and the cells were observed and analyzed with a fluorescence microscope (ArrayScan, manufactured by Thermo Fisher Scientific).

Row | SMILES | cell number (relative value) [1] | cell number (in words) [1] | cell number (in words) [2] | cell number (relative value) [2] | proliferation rate (%) ([3]; compound 5 μM) | increase of the area per one Cyst ([4]; Control as 100) | Cyst area (relative value) ([4]; control = 100) | proliferation rate (%) (5 μM) ([3]; 5 μM) | proliferation rate (%) (10 μM) ([3]; 10 μM)
1 | CC/C(=N\NC(=O)C(C)Nc1ccccc1)c1ccc(O)c(C)c1O (stereo not shown) [k-1:B-1] | 223% | showed an effect of increasing the number | showed an effect of increasing the number | 227% | – | – | – | – | –
2 | CCC(=NNC(=O)C(CC)Nc1ccccc1)c1ccc(O)c(C)c1O (stereo not shown) [k-1:H-7] | 206% | showed an effect of increasing the number | showed an effect of increasing the number | 232% | 236.46% | ≥ 20% | 124 | – | –
3 | CC/C(=N\NC(=O)Nc1ccccc1)c1ccc(O)c(C)c1O [k-1:H-10] | – | – | – | – | – | – | – | 127.9% | 138.4%
